Square brackets hold non-standard residues; d marks the D form. Ends that are not written are not given here.
Tests used:
[1] = test system: E. coli; test: Antibacterial assay of PEPXR hydrogels, E. coli; type: cell-based; details: evaluated against E. coli, S. aureus and P. aeruginosa
Excerpt: Thus, the peptide hydrogels described herein may generally comprise a high content of positively charged arginine (R) amino acids.

[2] = Net peptide charge and isoelectric point as a function of pH; type: physicochemical; details: pH 7
Excerpt: The peptide may be purified. For example, the peptide may be lyophilized. […] Other peptides are within the scope of the disclosure.
Exemplary peptides having a charge of +5 to +9 include […](d)[…], […](d)[…], and […](d)[…]. In other embodiments, the purified peptide may be substantially neutral. […] Net charge may be selected by peptide design. Design of electrostatic charge in the peptide hydrogel may allow control of charge interaction with cell membrane and proteins.

| Substance | antimicrobial activity [1] | net charge [2] |
| --- | --- | --- |
| VKVRVRVRVPPTRVRVRVKV (VKVRVRVRV[dP]PTRVRVRVKV-NH2) [PEP6R] | potent antimicrobial activity | – |
| VEVSVSVEV(d)PPTEVSVEVEV | – | net negative charge |

Source: US20240366717A1 (priority 2020, published 2024)
